This is an account of results in paper PMC6063323, “Synthesis, radiosynthesis, in vitro and first in vivo evaluation of a new matrix metalloproteinase inhibitor based on γ-fluorinated α-sulfonylaminohydroxamic acid” (EJNMMI Radiopharmacy and Chemistry, 2018).

For series [1], the system named is MMP-9. The settings on record: cited from earlier work.
Series [2] concerns MMP-2. As to conditions: cited from earlier work.
The target of series [3] is T1, activated MMP-2 (Homo sapiens, UniProt P08253).
T1 sequence (P08253 110-660): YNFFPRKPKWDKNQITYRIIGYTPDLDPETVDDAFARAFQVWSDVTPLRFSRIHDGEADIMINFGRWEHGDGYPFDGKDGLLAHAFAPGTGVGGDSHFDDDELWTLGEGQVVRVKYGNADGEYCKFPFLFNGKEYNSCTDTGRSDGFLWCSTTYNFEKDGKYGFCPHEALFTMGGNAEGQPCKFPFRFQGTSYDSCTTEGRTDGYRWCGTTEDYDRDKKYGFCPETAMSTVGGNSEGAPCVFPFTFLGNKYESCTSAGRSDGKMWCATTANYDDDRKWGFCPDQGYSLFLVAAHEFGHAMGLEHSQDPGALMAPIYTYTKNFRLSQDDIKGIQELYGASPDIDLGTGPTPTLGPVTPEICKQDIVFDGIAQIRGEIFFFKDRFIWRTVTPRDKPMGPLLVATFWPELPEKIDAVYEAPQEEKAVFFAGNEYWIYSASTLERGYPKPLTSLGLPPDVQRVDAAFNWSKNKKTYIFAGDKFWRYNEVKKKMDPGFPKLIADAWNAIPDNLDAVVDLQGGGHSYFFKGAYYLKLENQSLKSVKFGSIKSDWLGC
Put plainly: fluorometric in vitro MMP-2 inhibition assay. The settings on record: SD from three independent experiments; enzyme 2 nM, 37 °C, 30 min preincubation. The series is classed as biochemical. On the procedure: (§1) The inhibition potencies of (R)-9a and (S)-9a against activated MMP-2 and -9 were assayed using the synthetic fluorometric substrate (7-methoxycoumarin-4-yl)acetyl-Pro-Leu-Gly-Leu-(3-(2,4-dinitrophenyl)-L-2,3-diaminopropionyl)Ala-Arg-NH2 (R&D Systems) as described previously (Huang et al. [1997]). Briefly, MMP-2 and -9 (each at 2 nM) and test compounds at varying concentrations (10 pM to 1 mM) in Tris (50 mM), pH 7.5, containing NaCl (0.2 M), CaCl2 (5 mM), ZnSO4 (20 μM), and 0.05% Brij 35 were preincubated at 37 °C for 30 min. An aliquot of substrate (10 μL of a 50 μM solution) was added to the enzyme inhibitor mixture (90 μL), and the fluorescence changes were monitored using a TriStar2 Multimode Reader LB 942, (Berthold) with excitation and emission wavelengths of 340 and 405 nm, respectively. Reaction rates were measured from the initial 10 min and plotted as a function of inhibitor concentration. From the resulting inhibition curves, the IC50 values were calculated by nonlinear regression analysis using the Grace 5.1.8 software (Linux).
(§2) The MMP inhibition potencies of the hydroxamic acids (R)-9a and (S)-9a (Fig. 2) against MMP-2 and -9 were measured by fluorometric in vitro inhibition assays, following the previously described procedure (Huang et al. [1997]).

Series [4] has as its target activated MMP-9 (Homo sapiens, UniProt P14780). Put plainly: fluorometric in vitro MMP-9 inhibition assay. Type of series: biochemical. The settings on record: SD from three independent experiments; enzyme 2 nM, 37 °C, 30 min preincubation. As for the experimental part:
as §1, §2

On the set-up of series [5]: method as in Wagner et al., [2011]. As to conditions: ref Wagner et al., [2011], cited from earlier work.
Series [6] can be described thus: water/octanol partition coefficient logD (exp.). The series is classed as physicochemical. As to conditions: for logD: 1-octanol/PBS pH 7.4, determined for (S)-[^18F]9a. On the procedure:
The lipophilicity of the radioligand (S)-[^18F]9a was assessed by determination of the water/octanol partition coefficients following a published procedure (Prante et al. [2006]). In brief, approximately 20 kBq of (S)-[^18F]9a were mixed with equal amounts (0.5 mL) of PBS (pH 7.4) and 1-octanol and the resulting biphasic system was mixed vigorously for 1 min at rt. The tubes were centrifuged (3000 rpm, 2 min) and 400 μL of the octanol phase were separated and again mixed with equal amounts (400 μL) of PBS. The resulting biphasic system was again mixed vigorously of 1 min at rt. After centrifugation (3000 rpm, 2 min) three samples of 100 μL of each layer were counted in a gamma counter (Wallac Wizard, Perkin-Elmer Life Science). The partition coefficient was determined by calculating the ratio cpm(octanol)/cpm(PBS) and expressed as logD (exp.) (log(cpmoctanol/cpmPBS)). Two independent experiments were performed in triplicate and data were provided as mean values ± standard deviation.
Radiosynthesis of the ^18F-labelled counterpart (S)-[^18F]9a was accomplished via direct nucleophilic substitution reaction of the tosylate precursor (S)-9b by [^18F]fluoride according to the synthesis described for [^18F]FEtO-CGS 25966 (Wagner et al. [2011]). The radiosynthesis provided (S)-[^18F]9a with radiochemical yields of 31–46% (n = 3), radiochemical purities of > 97% in 95–110 min from the end of radionuclide production and molar activities of 2.8–3.4 GBq/μmol after radiosynthesis. The experimental logD value of the radioligand was determined in phosphate-buffered saline (PBS) as already described (Prante et al. [2006]).

Series [7] in a line: small animal PET in vivo biodistribution after intravenous injection. More on the design: species or system C57/BL6 mice. As for the experimental part:
Adult C57/BL6 mice (male, 21–23 g) were anesthetized by isoflurane/O2, and one lateral tail vein was cannulated using a 27 Ga needle connected to 15 cm polyethylene catheter tubing. (S)-[^18F]9a (500 kBq/g bodyweight) was injected as a bolus (50 μL of compound flushed with 100 μL of saline) via the tail vein, and subsequent PET scanning was performed.
PET experiments were carried out using a sub-millimeter high resolution (0.7 mm full width at half maximum) small animal scanner (32 module quadHIDAC, Oxford Positron Systems Ltd., Oxford, UK) with uniform spatial resolution (< 1 mm) over a large cylindrical field (165 mm diameter, 280 mm axial length) (Schäfers et al. [2005]).
List-mode data were acquired for 120 min and reconstructed into dynamic time frames using an iterative reconstruction algorithm. Subsequently, the scanning bed was transferred to the computed tomography (CT) scanner (Inveon, Siemens Medical Solutions, U.S.) and a CT acquisition with a spatial resolution of 80 μm was performed for each mouse. Reconstructed image data sets were co-registered based on extrinsic markers attached to the multimodal scanning bed and the image analysis software (Inveon Research Workplace 3.0, Siemens Medical Solutions, USA). Three-dimensional volumes of interest (VOIs) were defined over the respective organs in CT data sets, transferred to the co-registered PET data and analyzed quantitatively. Regional uptake was calculated as percentage of injected dose by dividing counts per milliliter in the VOI by total counts in the mouse multiplied by 100 (%ID/mL). Routes of tracer elimination were assessed by VOI segmentation of kidneys and bladder (renal route), and liver, gall bladder, small and large intestine (hepatobiliary route). Total activity for each route was calculated as percentage of injected dose by dividing the total counts in the respective VOI by total counts in the mouse multiplied by 100 (%ID).
Maximum intensity projections (MIPs) of the whole body in vivo biodistribution of tracer-associated radioactivity in an adult C57/Bl6 mouse 0–2, 2–5, 5–10, 20–30 and 80–90 min after intravenous injection of (S)-[^18F]9a are shown in Fig. 3.

Series [8] is described as follows: in vivo biostability and metabolism study (radio-HPLC of plasma, urine and tissue homogenates). Details: species or system OCR (CD1) wild type mice. As to conditions: 30 min p.i., mouse. As for the experimental part:
Approximately 11.1 MBq (S)-[^18F]9a (in a maximum volume of 200 μL) was injected into three mice each via tail vein injection. The animals were sacrificed at 30 min p.i.. Whole blood was obtained, weighed, and centrifuged at 3000 rpm (3 min) to isolate plasma. Urine was also collected. The muscle, brain, kidneys, and liver were harvested and homogenized in lysis buffer (1% SDS in PBS buffer). An aliquot of each sample (400 μL) was subsequently removed, mixed with 400 μL of acetonitrile and 100 μL of 3% acetic acid in acetonitrile, vigorously mixed, and placed on dry ice for 3 min. After thawing, the samples were centrifuged at 13000 rpm (8 min) to allow for the separation of supernatant from the pellet. The supernatant was then removed and assayed for radioactivity in a PerkinElmer Wizard γ-counter (20 s). The samples were analyzed by HPLC, using a γ-detector (Raytest GmbH/Agilent). HPLC was done on a Phenomenex C18 column (250 mm × 4.6 mm) using a gradient method with acetonitrile and water (both having 0.05% TFA).
An in vivo biostability and metabolism study was performed in three 10-month old female OCR (CD1) wild type mice 30 min p.i.

The mark [9] stands for this setting: Table 1, ref Mac Pherson et al. [1997], Scozzafava et al. 2000, Behrends et al. [2015], read-out: IC50 values MMP-9.
The mark [10] stands for this setting: Table 1, ref Mac Pherson et al. [1997], Scozzafava et al. 2000, Behrends et al. [2015], read-out: IC50 values MMP-2.
Setting [11] is: ref Behrends et al., [2015], read-out: IC50 MMP-9.
Setting [12] is: ref Behrends et al., [2015], read-out: IC50 MMP-2.

Where two headings read alike, the source gives them in different places.

Sequence of activated MMP-9 (P14780 107-707 limits assumed): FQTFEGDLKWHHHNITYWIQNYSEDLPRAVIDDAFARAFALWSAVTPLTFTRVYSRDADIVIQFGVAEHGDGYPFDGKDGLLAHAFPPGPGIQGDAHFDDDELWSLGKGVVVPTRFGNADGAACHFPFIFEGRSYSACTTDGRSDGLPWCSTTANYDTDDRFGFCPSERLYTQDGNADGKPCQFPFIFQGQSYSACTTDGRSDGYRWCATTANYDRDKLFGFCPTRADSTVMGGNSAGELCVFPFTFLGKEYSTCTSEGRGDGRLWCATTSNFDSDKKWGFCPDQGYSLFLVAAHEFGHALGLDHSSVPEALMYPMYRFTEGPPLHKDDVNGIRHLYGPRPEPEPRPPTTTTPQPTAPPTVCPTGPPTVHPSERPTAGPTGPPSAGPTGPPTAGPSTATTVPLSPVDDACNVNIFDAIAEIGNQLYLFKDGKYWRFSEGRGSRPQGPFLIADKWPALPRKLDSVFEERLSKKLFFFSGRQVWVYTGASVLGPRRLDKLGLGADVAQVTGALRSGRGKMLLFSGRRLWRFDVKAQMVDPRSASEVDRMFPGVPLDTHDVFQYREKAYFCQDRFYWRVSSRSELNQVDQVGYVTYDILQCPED

Usually IC50 stands for the midpoint of a concentration-inhibition curve. `COc1ccc(S(=O)(=O)N(Cc2cccnc2)[C@H](CCF)C(=O)NO)cc1` [(R)-1]: the IC50 in series [1] (setting [9]) is 12.3 nM; in series [2] (setting [10]) it was 6.4 nM.

As to `C=C(F)C[C@H](C(=O)NO)N(Cc1cccnc1)S(=O)(=O)c1ccc(OC)cc1` [(R)-2], the IC50 in series [1] (setting [9]) was 8.3 nM; in series [1] (setting [11]) it was 8.3 ± 0.1 nM; in series [2] (setting [10]), 9.3 nM; in series [2] (setting [12]), 9.3 ± 2 nM.

Turning to `C=C(F)C[C@H](C(=O)NO)N(Cc1ccccc1)S(=O)(=O)c1ccc(OCCF)cc1` [(R)-9a], the IC50 in series [3] worked out at 10.4 ± 5.9 nM; in series [4], 0.5 ± 0.3 nM.

Turning to `COc1ccc(S(=O)(=O)N(Cc2cccnc2)[C@@H](C(=O)NO)C(C)C)cc1` [(R)-CGS 27023A], the IC50 was 8 nM in series [1] (setting [9]) and 20 nM in series [2] (setting [10]).

For `CC(C)[C@H](C(=O)NO)N(Cc1ccccc1)S(=O)(=O)c1ccc(OCCF)cc1` [(R)-FEtO- CGS 25966], the “logD (exp.)” value in series [5] is given as 2.02 ± 0.03; in series [5] (listed as the analog derived from CGS 25966), 2.0. The IC50 in series [1] (ref Wagner et al., [2011], read-out: IC50 MMP-9) is 50 ± 27 nM; in series [2] (ref Wagner et al., [2011], read-out: IC50 MMP-2), 4 ± 3 nM.

`COc1ccc(S(=O)(=O)N(Cc2cccnc2)[C@@H](CCF)C(=O)NO)cc1` [(S)-1]: the figures for the IC50 in series [1] (setting [9]) and in series [2] (setting [10]) were 3 nM and 32.8 nM, respectively.

With `C=C(F)C[C@@H](C(=O)NO)N(Cc1cccnc1)S(=O)(=O)c1ccc(OC)cc1` [(S)-2], the IC50 in series [1] (setting [9]) was 4.9 nM; in series [1] (setting [11]) it was 4.9 ± 0.4 nM; in series [2] (setting [10]) it was 7.2 nM; in series [2] (setting [12]), 7.2 ± 0.1 nM.

A word on the logD: it is the decadic logarithm of the distribution of all forms, ionised or not, between an organic phase and buffer at a given pH. Take `C=C(F)C[C@@H](C(=O)NO)N(Cc1ccccc1)S(=O)(=O)c1ccc(OCCF)cc1` [(S)-9a, (S)-2-[N-Benzyl-4-(2-fluoroethoxy)phenylsulfonamido]-4-fluoro-N-hydroxypent-4-enamide]: the logD in series [6] was 1.16 ± 0.2. Moreover, the IC50 is 0.3 ± 0.03 nM in series [3] and 0.1 ± 0.01 nM in series [4].

As for `C=C(F)C[C@@H](C(=O)NO)N(Cc1ccccc1)S(=O)(=O)c1ccc(OCC[18F])cc1` [(S)-[^18F]9a, (S)-2-[N-Benzyl-4-(2-[^18F]fluoroethoxy)phenylsulfonamido]-4-fluoro-N-hydroxypent-4-enamide], the logD in series [6] is 1.16. The “hydrophilicity in comparison to [^18F]FEtO-CGS25966” value in series [6] (from experimental logD values) is on record as 7 times. Also, the “tracer remaining in non-excretion organs” value in series [7] (80–90 min p.i., mouse, i.v.) is reported as “no significant tracer remaining”. Also, the “injected tracer activity cleared from the blood and tissues” value in series [7] (90 min post injection) is reported as 73%. Also, the “defluorination in vivo (bone uptake of [^18F]fluoride ions)” value in series [7] (entire dynamic imaging study, mouse) is listed as “not observed”. For the same molecule, in series [7] (mouse, i.v., PET), the “accumulation in brain, myocardium, lung and muscles (unspecific binding)” value is listed as “not observed”; the “clearance of tracer and metabolites by renal excretion” value turned out to be 8%; the “clearance of tracer and metabolites through the liver and the gallbladder” value stood at 92%. In addition, in series [8], the “extent of metabolism in plasma (into four metabolites)” value is listed as “about 92%”; the “extent of metabolism in plasma, kidneys, urine, muscle and brain” value is “about 90%”. Moreover, in series [8] (radio-HPLC), the “share of radioactivity in brain” value was found to be 12 % HPLC, the “share of radioactivity in kidney” value stood at 17 % HPLC, the “share of radioactivity in liver” value came out at 1 % HPLC and the “share of radioactivity in muscle” value is reported as 17 % HPLC. Moreover, in series [8] (radio-HPLC), the “share of radioactivity in plasma” value is 8 % HPLC. In addition, the “metabolism of the parent compound in urine” value in series [8] (to four polar metabolites) is “complete metabolism”.
